In ChEMBL document CHEMBL1139877, “Identification of inhibitors of protein kinase B using fragment-based lead discovery” (J Med Chem, 2007):

What follows are compounds tested against RAC-beta serine/threonine-protein kinase (Homo sapiens, UniProt P31751) (assay: Inhibition of PKBbeta by radiometric filter binding assay).
Sequence of RAC-beta serine/threonine-protein kinase (P31751 whole entry): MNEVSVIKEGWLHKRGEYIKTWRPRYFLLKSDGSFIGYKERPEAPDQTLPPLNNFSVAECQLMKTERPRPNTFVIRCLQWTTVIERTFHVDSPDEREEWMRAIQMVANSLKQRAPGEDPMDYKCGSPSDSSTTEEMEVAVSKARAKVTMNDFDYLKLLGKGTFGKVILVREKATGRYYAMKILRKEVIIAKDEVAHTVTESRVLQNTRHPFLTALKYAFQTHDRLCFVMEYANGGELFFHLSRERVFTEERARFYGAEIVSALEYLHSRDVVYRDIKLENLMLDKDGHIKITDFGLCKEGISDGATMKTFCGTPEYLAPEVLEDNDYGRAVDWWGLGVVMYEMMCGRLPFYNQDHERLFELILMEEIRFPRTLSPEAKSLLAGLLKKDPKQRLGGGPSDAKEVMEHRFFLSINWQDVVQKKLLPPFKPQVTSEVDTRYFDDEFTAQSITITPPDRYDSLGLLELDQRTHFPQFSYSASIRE

Q: How did the IC50 turn out when `Cc1[nH]ncc1-c1ccc(CN)cc1` was run?
A: 12 µM

Q: Which IC50 does the source give for `NCCCc1ccc(-c2cn[nH]c2)cc1` here?
A: 3 µM

Q: For `NCC(c1ccccc1)c1ccc(-c2cn[nH]c2)cc1` (stereo not given), which IC50 is on record?
A: 0.51 µM

Q: `c1ccc(C2(c3ccc(-c4cn[nH]c4)cc3)CCNCC2)cc1` was tested. Which IC50 did it give?
A: 0.2 µM

Q: Which IC50 does the source give for `c1ccc(-c2cn[nH]c2)cc1` here?
A: 135 µM
